Test results taken from patent US20220370416A1, “COMPOUNDS AND METHODS FOR TARGETED DEGRADATION OF KRAS” (Arvinas Operations, Inc., priority 2020, published 2022).

Experiments:
HiBit-KRAS^G12C [1] = biological target: T1, HiBit-KRAS^G12C (Homo sapiens, UniProt P01116, G12C); assay: HiBit degradation assay in MiaPaCa-2 HiBit-KRas^G12C cells; assay type: cell-based; details: 24 hours; for Dmax: maximum degradation; for DC50: read-out: KRas^G12C-HiBiT (MiaPaCa; 0.1% DMSO) IC50
Summary of the method: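 MiaPaCa-2 cells with CRISPR N-terminal HiBit knock-in on one endogenous KRAS^G12C allele, treated 24 hours at 37° C with compound titrated 10 μM to 20 nM (0.1% or 0.5% DMSO). Lytic HiBit luminescence normalized to DMSO, 4-parameter fit giving DC50 and Dmax; points cytotoxic to […] cells by alamar blue excluded.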

HiBit-KRAS^G12C [2] = biological target: T1, HiBit-KRAS^G12C; assay: HiBit degradation assay in SW1573 HiBit-KRas^G12C cells; assay type: cell-based; set-up: expressed in transfected cells; host or cells: SW1573 (clone E6), modified pcDNA3.1 vector, TK promoter; details: 24 hours; for DC50: read-out: KRas^G12C-HIBit (SW1573; 0.1% DMSO) DC50*
Summary of the method: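 SW1573 cells stably expressing N-terminally HiBit-tagged KRAS G12C, under the TK promoter, were treated 24 h at 37 °C with 10 μM to 20 nM compound in 0.1% or 0.5% DMSO. Residual HiBit luminescence normalised to DMSO and fitted with a 4-parameter model for DC50 and Dmax. Points with ≥50% viability loss (alamar blue) excluded.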

[3] = MIA PaCa-2, read-out: KRas^G12C-HiBiT (MiaPaCa; 0.1% DMSO) DMax, MiaPaCa-2 HiBit-KRas^G12C cells, 0.1% DMSO
[4] = SW1573, read-out: KRas^G12C-HiBit (SW1573; 0.1% DMSO) Dmax**, SW1573 HiBit-KRas^G12C, 0.1% DMSO
[5] = SW1573 HiBit-KRas^G12C, 0.1% DMSO
[6] = MiaPaCa-2 HiBit-KRas^G12C cells, 0.1% DMSO

T1 sequence (P01116 1-186 isoform P01116-2 G12C limits assumed): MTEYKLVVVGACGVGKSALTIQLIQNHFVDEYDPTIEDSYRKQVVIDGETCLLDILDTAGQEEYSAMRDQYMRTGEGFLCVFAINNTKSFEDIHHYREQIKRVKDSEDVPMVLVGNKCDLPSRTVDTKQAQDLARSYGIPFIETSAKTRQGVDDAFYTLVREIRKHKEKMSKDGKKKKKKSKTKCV

| Dmax (HiBit-KRAS^G12C [1]; MIA PaCa-2, MiaPaCa-2 HiBit-KRas^G12C cells, 0.1% DMSO, read-out: KRas^G12C-HiBiT (MiaPaCa; 0.1% DMSO) DMax) [%] | Dmax (HiBit-KRAS^G12C [2]; SW1573, SW1573 HiBit-KRas^G12C, 0.1% DMSO, read-out: KRas^G12C-HiBit (SW1573; 0.1% DMSO) Dmax**) [%] | Compound | Dmax (HiBit-KRAS^G12C [1]; [3]) [%] | Dmax (HiBit-KRAS^G12C [1]; MIA PaCa-2, read-out: KRas^G12C-HiBiT (MiaPaCa; 0.5% DMSO) DMax, MiaPaCa-2 HiBit-KRas^G12C cells, 0.5% DMSO) [%] | Dmax (HiBit-KRAS^G12C [2]; SW1573, read-out: KRas^G12C-HiBiT (SW1573; 0.5% DMSO) Dmax**, SW1573 HiBit-KRas^G12C, 0.5% DMSO) [%] | Dmax (HiBit-KRAS^G12C [2]; [4]) [%] | DC50 (HiBit-KRAS^G12C [2]; [5]) [nM] | DC50 (HiBit-KRAS^G12C [1]; [6]) [nM] |
| --- | --- | --- | --- | --- | --- | --- | --- | --- |
|  |  | C=CC(=O)N1CCN(c2nc(O[C@H](C)CN3CC(OC4CCN(CC(=O)N[C@H](C(=O)N5C[C@H](O)C[C@H]5C(=O)N[C@@H](C)c5ccc(-c6scnc6C)cc5)C(C)(C)C)CC4)C3)nc3c(F)c(-c4cc(O)cc5ccccc45)c(Cl)cc23)CC1 [Compound 46, (2S,4R)-1-[(2S)-2-{2-[4-({1-[(2R)-2-{[6-chloro-8-fluoro-7-(3-hydroxynaphthalen-1-yl)-4-[4-(prop-2-enoyl)piperazin-1-yl]quinazolin-2-yl]oxy}propyl]azetidin-3-yl}oxy)piperidin-1-yl]acetamido}-3,3-dimethylbutanoyl]-4-hydroxy-N-[(1S)-1-[4-(4-methyl-1,3-thiazol-5-yl)phenyl]ethyl]pyrrolidine-2-carboxamide] | < 35 | 35 to 70 | 35 to 70 | 35 to 70 | 100 to 1000 |  |
|  |  | C=CC(=O)N1CCN(c2nc(O[C@H](C)CN3CCC(CCCOC4CN(CC(=O)N[C@H](C(=O)N5C[C@H](O)C[C@H]5C(=O)N[C@@H](C)c5ccc(-c6scnc6C)cc5)C(C)(C)C)C4)CC3)nc3c(F)c(-c4cc(O)cc5ccccc45)c(Cl)cc23)CC1 [Compound 48, (2S,4R)-1-[(2S)-2-{2-[3-(3-{1-[(2R)-2-{[6-chloro-8-fluoro-7-(3-hydroxynaphthalen-1-yl)-4-[4-(prop-2-enoyl)piperazin-1-yl]quinazolin-2-yl]oxy}propyl]piperidin-4-yl}propoxy)azetidin-1-yl]acetamido}-3,3-dimethylbutanoyl]-4-hydroxy-N-[(1S)-1-[4-(4-methyl-1,3-thiazol-5-yl)phenyl]ethyl]pyrrolidine-2-carboxamide] |  |  |  | < 35 | 100 to 1000 | > 1000 |
|  |  | C=CC(=O)N1CCN(c2nc(O[C@H](C)CN3CCN(CCCN4CCN(CC(=O)N[C@H](C(=O)N5C[C@H](O)C[C@H]5C(=O)N[C@@H](C)c5ccc(-c6scnc6C)cc5)C(C)(C)C)CC4)CC3)nc3c(F)c(-c4cc(O)cc5ccccc45)c(Cl)cc23)CC1 [Compound 49, (2S,4R)-1-[(2S)-2-{2-[4-(3-{4-[(2R)-2-{[6-chloro-8-fluoro-7-(3-hydroxynaphthalen-1-yl)-4-[4-(prop-2-enoyl)piperazin-1-yl]quinazolin-2-yl]oxy}propyl]piperazin-1-yl}propyl)piperazin-1-yl]acetamido}-3,3-dimethylbutanoyl]-4-hydroxy-N-[(1S)-1-[4-(4-methyl-1,3-thiazol-5-yl)phenyl]ethyl]pyrrolidine-2-carboxamide] |  |  |  | < 35 | 100 to 1000 | > 1000 |
|  |  | C=CC(=O)N1CCN(c2nc(O[C@H](C)CN3CCC(C4CCN(CC(=O)N[C@H](C(=O)N5C[C@H](O)C[C@H]5C(=O)N[C@@H](C)c5ccc(-c6scnc6C)cc5)C(C)(C)C)CC4)CC3)nc3c(F)c(-c4cc(O)cc5ccccc45)c(Cl)cc23)CC1 [Compound 50, (2S,4R)-1-[(2S)-2-(2-{1′-[(2R)-2-{[6-chloro-8-fluoro-7-(3-hydroxynaphthalen-1-yl)-4-[4-(prop-2-enoyl)piperazin-1-yl]quinazolin-2-yl]oxy}propyl]-[4,4′-bipiperidin]-1-yl}acetamido)-3,3-dimethylbutanoyl]-4-hydroxy-N-[(1S)-1-[4-(4-methyl-1,3-thiazol-5-yl)phenyl]ethyl]pyrrolidine-2-carboxamide] | 35 to 70 |  |  | 35 to 70 | > 1000 |  |
| < 35 | < 35 | C=CC(=O)N1CCN(c2nc(OCCN3CCN(CCOCC(=O)N[C@H](C(=O)N4C[C@H](O)C[C@H]4C(=O)N[C@@H](C)c4ccc(-c5scnc5C)cc4)C(C)(C)C)CC3)nc3c(F)c(-c4cc(O)cc5ccccc45)c(Cl)cc23)CC1 [Compound 51, (2S,4R)-1-[(2S)-2-(2-{2-[4-(2-{[6-chloro-8-fluoro-7-(3-hydroxynaphthalen-1-yl)-4-[4-(prop-2-enoyl)piperazin-1-yl]quinazolin-2-yl]oxy}ethyl)piperazin-1-yl]ethoxy}acetamido)-3,3-dimethylbutanoyl]-4-hydroxy-N-[(1S)-1-[4-(4-methyl-1,3-thiazol-5-yl)phenyl]ethyl]pyrrolidine-2-carboxamide] |  |  |  |  | > 1000 | 100 to 1000 |
|  |  | C=CC(=O)N1CCN(c2nc(O[C@H](C)CN3CCC(OCCOC4CN(CC(=O)N[C@H](C(=O)N5C[C@H](O)C[C@H]5C(=O)N[C@@H](C)c5ccc(-c6scnc6C)cc5)C(C)(C)C)C4)CC3)nc3c(F)c(-c4cc(O)cc5ccccc45)c(Cl)cc23)CC1 [Compound 53, (2S,4R)-1-[(2S)-2-(2-{3-[2-({1-[(2R)-2-{[6-chloro-8-fluoro-7-(3-hydroxynaphthalen-1-yl)-4-[4-(prop-2-enoyl)piperazin-1-yl]quinazolin-2-yl]oxy}propyl]piperidin-4-yl}oxy)ethoxy]azetidin-1-yl}acetamido)-3,3-dimethylbutanoyl]-4-hydroxy-N-[(1S)-1-[4-(4-methyl-1,3-thiazol-5-yl)phenyl]ethyl]pyrrolidine-2-carboxamide] |  |  |  | < 35 | 100 to 1000 | > 1000 |
|  |  | C=CC(=O)N1CCN(c2nc(O[C@H](C)CN3CCC(OCCN4CCN(CC(=O)N[C@H](C(=O)N5C[C@H](O)C[C@H]5C(=O)N[C@@H](C)c5ccc(-c6scnc6C)cc5)C(C)(C)C)CC4)CC3)nc3c(F)c(-c4cc(O)cc5ccccc45)c(Cl)cc23)CC1 [Compound 54, (2S,4R)-1-[(2S)-2-(2-{4-[2-({1-[(2R)-2-{[6-chloro-8-fluoro-7-(3-hydroxynaphthalen-1-yl)-4-[4-(prop-2-enoyl)piperazin-1-yl]quinazolin-2-yl]oxy}propyl]piperidin-4-yl}oxy)ethyl]piperazin-1-yl}acetamido)-3,3-dimethylbutanoyl]-4-hydroxy-N-[(1S)-1-[4-(4-methyl-1,3-thiazol-5-yl)phenyl]ethyl]pyrrolidine-2-carboxamide] |  |  |  |  | < 100 | > 1000 |
|  |  | C=CC(=O)N1CCN(c2nc(O[C@H](C)CN3CCN(CCOC4CCN(CC(=O)N[C@H](C(=O)N5C[C@H](O)C[C@H]5C(=O)N[C@@H](C)c5ccc(-c6scnc6C)cc5)C(C)(C)C)CC4)CC3)nc3c(F)c(-c4cc(O)cc5ccccc45)c(Cl)cc23)CC1 [Compound 55, (2S,4R)-1-[(2S)-2-{2-[4-(2-{4-[(2R)-2-{[6-chloro-8-fluoro-7-(3-hydroxynaphthalen-1-yl)-4-[4-(prop-2-enoyl)piperazin-1-yl]quinazolin-2-yl]oxy}propyl]piperazin-1-yl}ethoxy)piperidin-1-yl]acetamido}-3,3-dimethylbutanoyl]-4-hydroxy-N-[(1S)-1-[4-(4-methyl-1,3-thiazol-5-yl)phenyl]ethyl]pyrrolidine-2-carboxamide] |  |  |  | < 35 | 100 to 1000 | > 1000 |
|  |  | C=CC(=O)N1CCN(c2nc(O[C@H](C)CN3CCN(CCCOC4CN(CC(=O)N[C@H](C(=O)N5C[C@H](O)C[C@H]5C(=O)N[C@@H](C)c5ccc(-c6scnc6C)cc5)C(C)(C)C)C4)CC3)nc3c(F)c(-c4cc(O)cc5ccccc45)c(Cl)cc23)CC1 [Compound 57, (2S,4R)-1-[(2S)-2-{2-[3-(3-{4-[(2R)-2-{[6-chloro-8-fluoro-7-(3-hydroxynaphthalen-1-yl)-4-[4-(prop-2-enoyl)piperazin-1-yl]quinazolin-2-yl]oxy}propyl]piperazin-1-yl}propoxy)azetidin-1-yl]acetamido}-3,3-dimethylbutanoyl]-4-hydroxy-N-[(1S)-1-[4-(4-methyl-1,3-thiazol-5-yl)phenyl]ethyl]pyrrolidine-2-carboxamide] |  |  |  | < 35 | 100 to 1000 | > 1000 |
|  |  | C=CC(=O)N1CCN(c2nc(O[C@H](C)CN3CC(CN4CCN(CC(=O)N[C@H](C(=O)N5C[C@H](O)C[C@H]5C(=O)N[C@@H](C)c5ccc(-c6scnc6C)cc5)C(C)(C)C)CC4)C3)nc3c(F)c(-c4cc(O)cc5ccccc45)c(Cl)cc23)CC1 [Compound 59, (2S,4R)-1-[(2S)-2-{2-[4-({1-[(2R)-2-{[6-chloro-8-fluoro-7-(3-hydroxynaphthalen-1-yl)-4-[4-(prop-2-enoyl)piperazin-1-yl]quinazolin-2-yl]oxy}propyl]azetidin-3-yl}methyl)piperazin-1-yl]acetamido}-3,3-dimethylbutanoyl]-4-hydroxy-N-[(1S)-1-[4-(4-methyl-1,3-thiazol-5-yl)phenyl]ethyl]pyrrolidine-2-carboxamide] | < 35 |  |  | 35 to 70 | > 1000 |  |
